In US5462965A, “Use of heterocyclic amino-alcohol compounds for treatment of CNS diseases” (GD Searle & Co., priority 1992, dated 1995):
Like-named read-outs stand apart in the source and are kept apart here.

What was measured:
[1] = in certain cases and mostly high doses; cited from earlier work
[2] = molecular target: polyamine domain of the NMDA receptor-complex; assay: Binding of [125I]ifenprodil to rat cortical membranes (polyamine domain interaction)
Procedure: The NMDA receptor-ionophore complex consists of a number of interacting domains, including one for polyamines where ifenprodil binds to exert its noncompetitive antagonism. Ifenprodil was iodinated with Na^125 I/chloramine-T, purified and its binding characterized.
(§1) Membranes were prepared from freshly dissected brains of adult male Sprague-Dawley rats (175-250 g).
^125 I]Ifenprodil: Crude membranes were prepared from freshly dissected cerebral cortices as described elsewhere [P. M. Beart et al, Neurosci. Lett., 124, 187-189 (1991)]. Briefly, assays were performed in 5 mM Tris HCl pH 7.7 containing [^125 I]ifenprodil (20,000 dpms, ~20 pM) and cortical membranes (0.5 mg wet wt.) in a final volume of 0 5 mL Incubations were for 30 min at 20° C., in triplicate, employing 12 concentrations of competing drugs. Non-specific binding was defined with 10 mM spermine. Assays were terminated by rapid filtration through GF/B filter paper and washing [Beart et al, Id., (1991)].
Binding data were analyzed by the iterative curve fitting programs EBDA and LIGAND as fully described elsewhere [Beart et al, Id., (1989)].

[3] = system: NMDA receptor-ionophore complex (polyamine domain / NMDA ionophore); assay: Spermidine (polyamine)-stimulated [3H]TCP binding, functional model of coupling of the polyamine domain to the NMDA ionophore; settings: spermidine-stimulated [3H]TCP binding, rat cortex
Procedure: Polyamine-stimulated [^3 H]TCP: Crude synaptic ("buffy coat") membranes were prepared from freshly dissected cerebral cortices. Membrane preparations were extensively washed employing 3 freeze-thaw cycles. The final pellet was stored at -70° C. for 1-7 days prior to assay. On the day of assay, the membrane pellet was washed twice by resuspension and centrifugation (45,000 g, 10 min. ). […] Assays were terminated by rapid vacuum filtration through GF/B filter paper (pre-soaked in 0.5% aqueous polyethyleneimine) in a Brandel M-48R Cell Harvester and thorough washing with ice-cold 5 mM Tris HCl pH 7.7.

sigma site = assay: Sigma site binding: inhibition of R(+)-[3H]3-PPP binding; design: species or system rat
Procedure: as §1
R(+-^3 H]3-PPP: Crude membranes were prepared from whole brain (minus cerebellum) as described previously [P. M. Beart et al, J. Neurochem., 53, 779-788 (1989)]. A filtration binding assay was employed under similar conditions to those of Largent et al (1986) with 3 nM R (+)-[^3 H]-3-PPP and a 90 min. incubation at 25° C. (Beart et al, 1989). Non-specific binding was defined with 10 μ1,3-di(2-tolyl)guanidine (DTG).
Binding data were analyzed by the iterative curve fitting programs EBDA and LIGAND as fully described elsewhere [Beart et al, Id., (1989)]. Results obtained from experiments examining spermidine-stimulated binding of ^3 H]TCP were analyzed by the program FLEXIFIT [V. Guardabasso et al, FASEB J., 2, 209-215 (1988)] which iteratively fits data to a sigmoidal model providing estimates of IC50 and slope for the drug under study.

NMDA receptor = settings: C. Carter et al, 1988; cited from earlier work
[4] = rat cortical membranes, mean ± s.e.m., n = 3 or 4, read-out: [125I] IFENPRODIL Kd
[5] = one site fit, pooled data, n = 2 independent experiments, read-out: KG = Dissociation constant for one site fit
[6] = two site fit, value in parentheses (exception to better 2 site fit)
[7] = two site fit, value in parentheses (exception to better 2 site fit), read-out: KH = Dissociation constant at high affinity site for two site fit
[8] = two site fit, value in parentheses (exception to better 2 site fit), read-out: KL = Dissociation constant at low affinity site for two site fit
[9] = one site fit, *one experiment, read-out: KG = Dissociation constant for one site fit

Compound	CNS-activity [1]	Kd [2, 4] [nM]	SPERMIDINE [3H] TCP IC50 (class symbol: inhibitory at 50 μM) [3]	% RH = Percent of high affinity binding sites for two site fit (sigma site; [6]) [%]	Kd (sigma site; [7]) [nM]	Kd (sigma site; [8]) [nM]	also measured
OC(CN1CCN(Cc2ccccc2)CC1)c1ccc2c(c1)CCC2 (centres unmarked) [1-(5-indanyl)-2-amino-N-phenylmethylpiperazinoethanol]	in certain cases and mostly high doses posess a CNS-activity						
CC(C(O)c1ccc2c(c1)CCS2)N1CCC(Cc2ccccc2)CC1 (centres unmarked) [Compound 186]		6700 ± 1100	+	72	2.9	600	inhibition of binding of R(+)-[3H]3-PPP (sigma site; in words): very potent inhibitors; Kd (sigma site; [5]): 30 nM
CC(NCCCCc1ccccc1)C(O)c1ccc2c(c1)CCCS2 (centres unmarked) [Compound 2]		9300 ± 5500	+	72	150	4300	Kd (sigma site; [9]): 400 nM
CC(NCCCCOc1ccccc1)C(O)c1ccc2c(c1)CCCS2 (centres unmarked) [Compound 24]		3700 ± 1100	+	63	89	3000	Kd (sigma site; [9]): 390 nM
OC(CN1CCC(Cc2ccc(F)cc2)CC1)c1ccc(Cl)cc1 (centres unmarked) [SL82.0715, reference compound]		2300 ± 100					dissociability of [125I]ifenprodil specific binding ([2]; 16.7 μM SL 82.0715): poorly dissociable; Kd ([2]; n=3, read-out: dissociation constant of SL82.0715 ([125I]ifenprodil binding)): 2300 ± 130 nM
OC(CNC1CCCCCC1)c1ccc2c(c1)CCC2 (centres unmarked) [1-(5-indanyl)-2-amino-N-cycloheptyl-ethanol]	in certain cases and mostly high doses posess a CNS-activity						
CC(NCCCCc1ccccc1)C(O)c1ccc2c(c1)CCS2 (single isomer, unassigned) [Compound 185]		3500 ± 1100		63	4.6	300	IC50 ([3]; at least two independent experiments): 59000 nM; inhibition of binding of R(+)-[3H]3-PPP (sigma site; in words): very potent inhibitors; affinity for the high affinity sigma site (sigma site; in words, computer-assisted analyses): appreciable affinity; Kd (sigma site; [5]): 32 nM
1-(4chlorophenyl)-2-[1-(4-fluorophenyl)piperidinyl]ethanol							NMDA receptor antagonism (NMDA receptor): noncompetitive NMDA receptor antagonists
CC(C(O)c1ccc2c(c1)CCCS2)N1CCC(Cc2ccccc2)CC1 (centres unmarked) [Compound 26]		12000					
CCCCN(C)CC(O)c1ccc2c(c1)CCC2 (centres unmarked) [1-(5-indanyl)-2-amino-N,N-n-butyl-methylethanol]	in certain cases and mostly high doses posess a CNS-activity						
